This is an account of results in ChEMBL document CHEMBL5465560, “Selectivity Literature for EUbOPEN Chemogenomic Library” (2024).

pIC50: −log10 of the molar value.

Test [1] concerns the target Mitogen-activated protein kinase kinase kinase 4 (Homo sapiens) (UniProt Q9Y6R4). Nature of the test: Selectivity interaction (KinomeScan (DiscoverX)) EUB0000595a MAP3K4. Particulars: at 10 µM.
In test [2] the target is Angiopoietin-1 receptor (Homo sapiens) (UniProt Q02763). Nature of the test: Selectivity interaction (KinomeScan (DiscoverX)) EUB0000595a TEK. Particulars: at 10 µM.
Chain of Angiopoietin-1 receptor (Homo sapiens) (Q02763 whole entry): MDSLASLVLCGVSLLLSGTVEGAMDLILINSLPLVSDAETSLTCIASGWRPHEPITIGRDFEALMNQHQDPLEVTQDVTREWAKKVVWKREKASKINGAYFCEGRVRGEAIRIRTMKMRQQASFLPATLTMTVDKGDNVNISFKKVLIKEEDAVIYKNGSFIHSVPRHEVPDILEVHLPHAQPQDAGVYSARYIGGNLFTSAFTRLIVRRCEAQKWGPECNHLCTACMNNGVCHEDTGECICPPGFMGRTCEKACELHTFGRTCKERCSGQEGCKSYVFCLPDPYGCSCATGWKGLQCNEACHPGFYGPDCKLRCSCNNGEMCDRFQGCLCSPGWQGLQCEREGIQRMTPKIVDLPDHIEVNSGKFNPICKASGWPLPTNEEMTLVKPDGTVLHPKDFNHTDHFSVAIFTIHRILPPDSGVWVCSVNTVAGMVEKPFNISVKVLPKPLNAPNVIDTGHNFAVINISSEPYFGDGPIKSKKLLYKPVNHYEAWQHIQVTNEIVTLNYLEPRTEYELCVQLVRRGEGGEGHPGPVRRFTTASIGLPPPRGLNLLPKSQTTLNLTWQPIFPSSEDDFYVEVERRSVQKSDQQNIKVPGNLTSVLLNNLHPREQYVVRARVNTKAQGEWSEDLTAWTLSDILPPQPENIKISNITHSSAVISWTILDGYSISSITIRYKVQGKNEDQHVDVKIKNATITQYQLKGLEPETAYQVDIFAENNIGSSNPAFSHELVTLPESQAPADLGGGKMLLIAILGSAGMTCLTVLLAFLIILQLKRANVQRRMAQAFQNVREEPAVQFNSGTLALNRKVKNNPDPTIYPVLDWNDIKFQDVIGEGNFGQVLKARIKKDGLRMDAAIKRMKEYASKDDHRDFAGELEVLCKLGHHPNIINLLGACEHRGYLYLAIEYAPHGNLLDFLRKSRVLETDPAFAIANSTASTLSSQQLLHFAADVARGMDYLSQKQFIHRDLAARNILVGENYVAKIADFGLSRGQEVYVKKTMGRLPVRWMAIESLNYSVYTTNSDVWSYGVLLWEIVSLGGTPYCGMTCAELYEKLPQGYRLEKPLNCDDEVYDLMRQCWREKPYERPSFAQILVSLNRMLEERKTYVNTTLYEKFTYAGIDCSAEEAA
Test [3] addresses Serine/threonine-protein kinase 38-like (Homo sapiens) (UniProt Q9Y2H1). The conditions noted are these: at 10 µM.
The target of test [4] is Epidermal growth factor receptor (Homo sapiens, UniProt P00533). Nature of the test: Selectivity interaction (Kinase screening (Nanosyn)) EUB0000604a EGFR.
Test [5] has as its target Receptor tyrosine-protein kinase erbB-4 (Homo sapiens, UniProt Q15303). The experiment in a line: Selectivity interaction (Radiometric kinase assay (using 10 uM ATP)) EUB0000601a ERBB4.
Test [6] has as its target Tyrosine-protein kinase ITK/TSK (Homo sapiens, UniProt Q08881). Nature of the test: Selectivity interaction (Enyzmatic assay) EUB0000601a ITK.
Test [7] concerns the target T1, Ephrin type-B receptor 1 (Homo sapiens) (UniProt P54762).
T1 sequence (whole entry): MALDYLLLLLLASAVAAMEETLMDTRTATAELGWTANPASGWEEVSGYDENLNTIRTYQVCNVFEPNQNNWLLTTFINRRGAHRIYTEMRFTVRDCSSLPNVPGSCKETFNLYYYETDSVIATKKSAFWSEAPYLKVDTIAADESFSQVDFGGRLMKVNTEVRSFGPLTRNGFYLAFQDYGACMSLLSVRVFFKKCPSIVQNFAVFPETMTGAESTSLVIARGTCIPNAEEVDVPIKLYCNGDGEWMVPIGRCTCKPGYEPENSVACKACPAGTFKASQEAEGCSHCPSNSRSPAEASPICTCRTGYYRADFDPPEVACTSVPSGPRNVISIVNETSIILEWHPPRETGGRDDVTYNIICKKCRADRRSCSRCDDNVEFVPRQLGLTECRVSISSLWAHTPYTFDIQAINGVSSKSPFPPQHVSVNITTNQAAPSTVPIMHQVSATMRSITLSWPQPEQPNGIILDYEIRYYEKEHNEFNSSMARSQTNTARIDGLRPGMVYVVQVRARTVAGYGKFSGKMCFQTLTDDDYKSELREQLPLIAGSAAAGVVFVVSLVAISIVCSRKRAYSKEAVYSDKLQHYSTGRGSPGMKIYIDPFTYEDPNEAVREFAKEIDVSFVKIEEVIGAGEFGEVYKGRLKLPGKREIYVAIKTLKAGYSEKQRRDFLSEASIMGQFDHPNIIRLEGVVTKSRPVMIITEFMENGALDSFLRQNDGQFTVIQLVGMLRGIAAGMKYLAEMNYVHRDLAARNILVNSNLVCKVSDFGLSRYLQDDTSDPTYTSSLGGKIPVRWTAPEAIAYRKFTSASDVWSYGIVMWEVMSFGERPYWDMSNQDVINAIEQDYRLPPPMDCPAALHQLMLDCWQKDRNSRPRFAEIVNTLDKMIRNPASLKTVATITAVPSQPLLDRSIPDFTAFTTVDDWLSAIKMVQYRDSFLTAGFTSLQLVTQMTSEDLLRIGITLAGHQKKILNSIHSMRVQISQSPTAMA
Nature of the test: Selectivity interaction (KinomeScan (DiscoverX)) EUB0000045b EPHB1.

The target of test [8] is Cyclin-dependent kinase-like 1 (Homo sapiens) (UniProt Q00532). The experiment in a line: Selectivity interaction (Ambit KINOMEscan and KiNATiv profiling in Jurkat cells) EUB0000090b CDKL1. The conditions noted are these: at 1 µM. The test is classed as cell-based.
Chain of Cyclin-dependent kinase-like 1 (Homo sapiens) (Q00532 whole entry): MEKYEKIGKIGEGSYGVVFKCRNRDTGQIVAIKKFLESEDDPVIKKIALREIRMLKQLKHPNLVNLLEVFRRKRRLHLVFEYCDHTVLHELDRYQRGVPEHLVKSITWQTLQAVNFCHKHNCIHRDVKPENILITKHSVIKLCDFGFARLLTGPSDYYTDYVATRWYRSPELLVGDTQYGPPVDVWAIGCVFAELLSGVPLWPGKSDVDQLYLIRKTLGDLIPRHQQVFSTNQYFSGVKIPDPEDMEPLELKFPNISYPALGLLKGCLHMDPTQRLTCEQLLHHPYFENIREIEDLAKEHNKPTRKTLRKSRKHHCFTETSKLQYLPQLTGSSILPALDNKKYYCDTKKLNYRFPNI
Test [9] addresses MAP kinase-interacting serine/threonine-protein kinase 2 (Homo sapiens, UniProt Q9HBH9).
Test [10] addresses G protein-coupled receptor kinase 6 (Homo sapiens) (UniProt P43250). Nature of the test: Selectivity interaction (Upstate Kinase Profiler service (Millipore)) EUB0000056c GRK6. The conditions noted are these: at 1 µM.
Test [11] concerns the target T2, Calcium/calmodulin-dependent protein kinase type IV (Homo sapiens) (UniProt Q16566).
T2 sequence (whole entry): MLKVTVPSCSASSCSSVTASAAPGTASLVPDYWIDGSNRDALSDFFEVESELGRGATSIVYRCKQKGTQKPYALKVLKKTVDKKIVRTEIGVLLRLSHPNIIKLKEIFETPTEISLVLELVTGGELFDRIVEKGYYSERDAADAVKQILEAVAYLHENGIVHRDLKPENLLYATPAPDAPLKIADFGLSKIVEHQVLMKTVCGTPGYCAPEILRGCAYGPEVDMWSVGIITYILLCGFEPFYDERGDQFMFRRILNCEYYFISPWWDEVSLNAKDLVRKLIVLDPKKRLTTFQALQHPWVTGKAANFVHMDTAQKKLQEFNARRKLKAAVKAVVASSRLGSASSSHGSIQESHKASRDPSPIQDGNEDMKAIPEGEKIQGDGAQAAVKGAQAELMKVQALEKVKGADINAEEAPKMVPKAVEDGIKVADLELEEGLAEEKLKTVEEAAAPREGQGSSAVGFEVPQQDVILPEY
Nature of the test: Selectivity interaction (KinomeScan (DiscoverX)) EUB0000618a CAMK4. The conditions noted are these: at 10 µM.

For test [12], the target named is T3, Serine/threonine-protein kinase Sgk2 (Homo sapiens) (UniProt Q9HBY8).
T3 sequence (whole entry): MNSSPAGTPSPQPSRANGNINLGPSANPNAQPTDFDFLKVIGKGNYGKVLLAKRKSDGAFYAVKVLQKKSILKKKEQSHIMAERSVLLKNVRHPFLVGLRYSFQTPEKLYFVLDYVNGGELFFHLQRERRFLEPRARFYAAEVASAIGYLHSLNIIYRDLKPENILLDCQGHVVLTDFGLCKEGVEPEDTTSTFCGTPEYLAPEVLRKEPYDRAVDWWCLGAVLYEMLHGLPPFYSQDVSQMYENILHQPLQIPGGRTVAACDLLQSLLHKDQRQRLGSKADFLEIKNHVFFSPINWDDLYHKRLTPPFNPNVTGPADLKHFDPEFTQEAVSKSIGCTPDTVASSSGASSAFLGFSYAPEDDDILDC
The experiment in a line: Selectivity interaction (KinomeScan (DiscoverX)) EUB0000229b SGK2. The conditions noted are these: at 10 µM.

Chain of Serine/threonine-protein kinase 38-like (Homo sapiens) (Q9Y2H1 2-464 limits assumed): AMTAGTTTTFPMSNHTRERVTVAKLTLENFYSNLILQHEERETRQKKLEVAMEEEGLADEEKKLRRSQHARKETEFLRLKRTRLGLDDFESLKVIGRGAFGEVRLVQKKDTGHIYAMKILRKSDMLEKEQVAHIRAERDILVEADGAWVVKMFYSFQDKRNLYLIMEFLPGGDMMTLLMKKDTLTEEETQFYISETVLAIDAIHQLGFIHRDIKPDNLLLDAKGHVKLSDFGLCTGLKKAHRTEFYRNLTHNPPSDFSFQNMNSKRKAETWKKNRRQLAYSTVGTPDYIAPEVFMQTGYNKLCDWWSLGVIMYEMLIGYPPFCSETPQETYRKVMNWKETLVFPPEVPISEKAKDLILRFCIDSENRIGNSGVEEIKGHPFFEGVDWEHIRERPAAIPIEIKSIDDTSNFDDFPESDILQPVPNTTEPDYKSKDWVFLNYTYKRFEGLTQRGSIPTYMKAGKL
Chain of Tyrosine-protein kinase ITK/TSK (Q08881 whole entry): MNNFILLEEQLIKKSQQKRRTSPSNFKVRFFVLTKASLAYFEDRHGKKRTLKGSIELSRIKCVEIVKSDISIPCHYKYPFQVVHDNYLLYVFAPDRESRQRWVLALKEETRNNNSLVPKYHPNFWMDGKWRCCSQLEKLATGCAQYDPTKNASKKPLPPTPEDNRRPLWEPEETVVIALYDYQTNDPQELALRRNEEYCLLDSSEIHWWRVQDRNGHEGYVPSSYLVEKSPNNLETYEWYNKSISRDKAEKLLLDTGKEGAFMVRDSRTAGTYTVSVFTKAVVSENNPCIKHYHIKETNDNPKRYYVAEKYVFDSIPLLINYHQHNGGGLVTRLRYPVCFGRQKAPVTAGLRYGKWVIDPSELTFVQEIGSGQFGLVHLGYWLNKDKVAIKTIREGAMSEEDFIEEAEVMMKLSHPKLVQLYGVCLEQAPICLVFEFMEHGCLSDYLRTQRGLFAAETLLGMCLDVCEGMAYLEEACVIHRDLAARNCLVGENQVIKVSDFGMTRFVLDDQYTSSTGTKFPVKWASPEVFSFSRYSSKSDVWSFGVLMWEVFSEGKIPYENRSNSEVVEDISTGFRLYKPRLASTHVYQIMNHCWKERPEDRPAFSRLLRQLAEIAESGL
Chain of G protein-coupled receptor kinase 6 (Homo sapiens) (P43250 whole entry, looked up): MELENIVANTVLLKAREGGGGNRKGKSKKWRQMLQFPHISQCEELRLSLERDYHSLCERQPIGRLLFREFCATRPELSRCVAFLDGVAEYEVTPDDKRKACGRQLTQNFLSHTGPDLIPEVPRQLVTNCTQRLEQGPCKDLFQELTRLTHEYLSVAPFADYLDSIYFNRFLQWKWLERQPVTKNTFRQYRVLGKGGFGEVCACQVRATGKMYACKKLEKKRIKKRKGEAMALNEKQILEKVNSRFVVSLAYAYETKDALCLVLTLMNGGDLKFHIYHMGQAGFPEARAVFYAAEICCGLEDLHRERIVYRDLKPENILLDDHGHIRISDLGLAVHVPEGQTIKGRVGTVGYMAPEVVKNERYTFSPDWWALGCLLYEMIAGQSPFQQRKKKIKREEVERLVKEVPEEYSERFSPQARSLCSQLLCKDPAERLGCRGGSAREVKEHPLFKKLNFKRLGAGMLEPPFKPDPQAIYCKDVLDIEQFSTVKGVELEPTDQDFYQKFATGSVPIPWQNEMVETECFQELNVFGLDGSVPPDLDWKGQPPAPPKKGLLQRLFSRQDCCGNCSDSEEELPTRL
Chain of MAP kinase-interacting serine/threonine-protein kinase 2 (Q9HBH9 whole entry): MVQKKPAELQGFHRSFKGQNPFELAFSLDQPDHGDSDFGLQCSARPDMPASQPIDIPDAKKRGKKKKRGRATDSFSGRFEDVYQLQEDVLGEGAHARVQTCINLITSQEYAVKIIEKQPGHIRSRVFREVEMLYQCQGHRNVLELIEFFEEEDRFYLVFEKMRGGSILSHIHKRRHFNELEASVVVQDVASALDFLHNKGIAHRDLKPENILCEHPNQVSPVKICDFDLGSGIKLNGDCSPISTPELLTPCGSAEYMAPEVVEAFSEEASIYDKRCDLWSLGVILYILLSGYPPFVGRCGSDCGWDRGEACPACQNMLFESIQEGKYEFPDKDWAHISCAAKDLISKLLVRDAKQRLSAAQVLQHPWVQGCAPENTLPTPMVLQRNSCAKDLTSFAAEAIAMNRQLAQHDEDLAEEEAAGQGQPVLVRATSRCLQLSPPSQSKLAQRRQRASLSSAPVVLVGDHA
Chain of Receptor tyrosine-protein kinase erbB-4 (Q15303 whole entry): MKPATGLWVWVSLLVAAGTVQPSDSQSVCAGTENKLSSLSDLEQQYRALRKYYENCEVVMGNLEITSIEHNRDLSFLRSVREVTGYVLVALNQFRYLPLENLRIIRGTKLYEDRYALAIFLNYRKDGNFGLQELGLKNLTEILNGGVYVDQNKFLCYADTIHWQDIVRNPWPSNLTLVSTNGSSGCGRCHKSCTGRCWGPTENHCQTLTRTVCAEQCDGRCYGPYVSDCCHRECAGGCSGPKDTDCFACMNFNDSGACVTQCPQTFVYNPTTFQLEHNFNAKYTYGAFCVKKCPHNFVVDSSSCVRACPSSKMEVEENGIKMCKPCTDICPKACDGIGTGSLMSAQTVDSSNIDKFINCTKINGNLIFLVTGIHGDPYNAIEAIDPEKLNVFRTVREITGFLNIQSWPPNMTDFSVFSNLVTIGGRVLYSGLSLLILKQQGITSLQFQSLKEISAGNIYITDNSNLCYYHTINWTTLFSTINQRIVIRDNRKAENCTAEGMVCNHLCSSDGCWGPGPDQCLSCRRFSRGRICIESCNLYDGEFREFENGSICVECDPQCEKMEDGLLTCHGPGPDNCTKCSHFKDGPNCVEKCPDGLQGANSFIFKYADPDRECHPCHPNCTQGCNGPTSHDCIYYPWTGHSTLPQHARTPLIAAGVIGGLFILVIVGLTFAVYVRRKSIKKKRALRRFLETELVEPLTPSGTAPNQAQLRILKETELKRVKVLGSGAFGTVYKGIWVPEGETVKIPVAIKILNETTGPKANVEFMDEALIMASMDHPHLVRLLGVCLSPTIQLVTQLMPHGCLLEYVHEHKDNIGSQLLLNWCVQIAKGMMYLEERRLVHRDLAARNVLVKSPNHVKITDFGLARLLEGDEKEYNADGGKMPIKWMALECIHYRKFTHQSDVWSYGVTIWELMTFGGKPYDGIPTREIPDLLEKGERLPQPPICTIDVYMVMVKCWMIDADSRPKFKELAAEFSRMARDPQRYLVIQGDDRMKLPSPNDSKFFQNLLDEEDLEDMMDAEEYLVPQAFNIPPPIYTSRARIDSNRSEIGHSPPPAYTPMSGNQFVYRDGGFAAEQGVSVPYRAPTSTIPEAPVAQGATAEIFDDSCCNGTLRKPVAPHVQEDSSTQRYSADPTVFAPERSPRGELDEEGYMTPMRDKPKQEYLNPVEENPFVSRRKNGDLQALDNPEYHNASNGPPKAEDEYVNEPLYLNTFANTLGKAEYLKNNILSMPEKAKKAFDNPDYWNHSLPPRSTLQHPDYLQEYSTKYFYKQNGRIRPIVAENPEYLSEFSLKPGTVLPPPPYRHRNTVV

Consider `COCC(=O)NC/C=C/c1ccc2ncnc(Nc3ccc(Oc4ccc(C)nc4)c(C)c3)c2c1` [CP-724714], for which the % of control in test [1] is 97%; in test [2], 100%. `CCN(CC)CCCCNc1ncc2cc(-c3cc(OC)cc(OC)c3)c(NC(=O)NC(C)(C)C)nc2n1` returned a % of control in [3] of 100%. For `Cc1cnc(Nc2ccc(F)cc2Cl)nc1-c1c[nH]c(C(=O)N[C@H](CO)c2cccc(Cl)c2)c1`, the % of inhibition in test [4] is 6%. As a reminder, the pIC50 is the negative decadic logarithm of the IC50, by convention in mol/L. Low readings indicate a high IC50, high ones a low IC50. On to `CCc1cc(Nc2nccc(-c3c(-c4ccc(OC)c(C(=O)Nc5c(F)cccc5F)c4)nc4ccccn34)n2)c(OC)cc1N1CCC(N2CCN(S(C)(=O)=O)CC2)CC1`, for which the figures for the pIC50 in [5] and in test [6] were below 3.60 and below 4.60, respectively. On to `C=CC(=O)Nc1cc(-n2c(=O)ccc3cnc4ccc(-c5ccc(NS(C)(=O)=O)cc5)cc4c32)ccc1C`, for which the % of control in test [7] (at 1 µM) and in test [7] (at 10 µM) was 100% throughout. `CN(C)C/C=C/C(=O)Nc1ccc(C(=O)N2CCCC(Nc3ncc(Cl)c(-c4c[nH]c5ccccc45)n3)C2)cc1` (stereo not drawn): the % of control in test [8] worked out at 38%. Turning to `CCc1cccc(CC)c1NC(=O)c1nn(C)c2c1CCc1cnc(Nc3ccc(C(=O)NC4CCN(C)CC4)cc3OC(F)(F)F)nc1-2`, the negative logarithm of the IC50 (pIC50) in test [9] was below 5.00.

As to `Cc1ccc(-c2ccc3c(ccc4sc5c(c43)NC[C@@H](C)NC5=O)n2)cn1`, the % of inhibition in test [10] is 10%. Regarding `O[C@H]1CC[C@H](Nc2ncc3nc(Nc4c(F)cc(F)cc4F)n([C@H]4CCOC4)c3n2)CC1`, in test [11], the % of control stood at 87%. `COc1cc(N(C)c2ccnc3ccc(C(F)(F)F)cc23)cc(OC)c1OC` returned a % binding in test [12] of 80%.
